Source: patent US20260347373A1, “HETEROCYCLIC COMPOUNDS, COMPOSITIONS THEREOF, AND METHODS OF TREATMENT THEREWITH” (BeOne Medicines I GmbH, priority 2023, published 2026)
Where two headings read alike, the source gives them in different places.

Biological target: KRAS G12D (Homo sapiens, UniProt P01116, G12D)
Assay: KRAS G12D Probe Displacement Assay (TR-FRET, GDP-loaded)
Format: binding
Excerpt: The synthetic routes of probe 1 and 2, which have been disclosed in PCT/CN2022/070676, are hereby incorporated herein.

[1] = KRAS G12D, read-out: KRAS^G12D Probe Displacement Assay IC50

Sequence of KRAS G12D (P01116 1-188 isoform P01116-2 G12D): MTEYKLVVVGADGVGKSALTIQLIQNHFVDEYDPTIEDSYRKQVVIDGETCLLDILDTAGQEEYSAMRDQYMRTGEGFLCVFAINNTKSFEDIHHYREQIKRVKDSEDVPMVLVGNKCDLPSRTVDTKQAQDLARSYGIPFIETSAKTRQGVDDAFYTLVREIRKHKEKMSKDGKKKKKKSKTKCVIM

Row | SMILES | IC50 (KRAS^G12D Probe Displacement Assay IC50, KRAS G12D) [nM] | IC50 [1] [nM]
1 | COC1CN(CC2(COc3nc4c5c(nc(-c6cc(N)cc(C)c6C(F)(F)F)c(F)c5n3)OCC[C@@H]3[C@@H]5CC[C@H](CN43)N5)CC2(F)F)C1 (single isomer, unassigned) [Example 21] | 0.3 to 3 | 
2 | Cc1cc(N)cc(-c2nc3c4c(nc(O[C@@H]5COCC[C@H]5N(C)C)nc4c2F)N2C[C@H]4CC[C@H](N4)[C@H]2CCO3)c1C(F)(F)F [Example 10, (3S,4R)-3-(((6aR,7S,10R)-2-(5-amino-3-methyl-2-(trifluoromethyl)phenyl)-1-fluoro-5,6,6a,7,8,9,10,11-octahydro-4-oxa-3,11a,12,14,15-pentaaza-7,10-methanocyclohepta[4,5]cycloocta [1,2,3-de]naphthalen-13-yl)oxy)-N,N-dimethyltetrahydro-2H-pyran-4-amine] |  | 3 to 1000
3 | Cc1cc(N)cc(-c2nc3c4c(nc(O[C@H]5CCOC[C@@H]5N(C)C)nc4c2F)N2C[C@H]4CC[C@H](N4)[C@H]2CCO3)c1C(F)(F)F [Example 9, (3S,4S)-4-(((6aR,7S,10R)-2-(5-amino-3-methyl-2-(trifluoromethyl)phenyl)-1-fluoro-5,6,6a,7,8,9,10,11-octahydro-4-oxa-3,11a,12,14,15-pentaaza-7,10-methanocyclohepta[4,5]cycloocta [1,2,3-de]naphthalen-13-yl)oxy)-N,N-dimethyltetrahydro-2H-pyran-3-amine] |  | 3 to 1000
4 | Cc1cc(N)cc(-c2nc3c4c(nc(O[C@H]5COCC[C@H]5N(C)C)nc4c2F)N2C[C@H]4CC[C@H](N4)[C@H]2CCO3)c1C(F)(F)F [Example 12, (3R,4R)-3-(((6aR,7S,10R)-2-(5-amino-3-methyl-2-(trifluoromethyl)phenyl)-1-fluoro-5,6,6a,7,8,9,10,11-octahydro-4-oxa-3,11a,12,14,15-pentaaza-7,10-methanocyclohepta[4,5]cycloocta [1,2,3-de]naphthalen-13-yl)oxy)-N,N-dimethyltetrahydro-2H-pyran-4-amine] |  | 3 to 1000
5 | CO[C@H]1CCN(C)[C@@H]1C(C)Oc1nc2c3c(nc(-c4cc(N)cc(C)c4C(F)(F)F)c(F)c3n1)OCC[C@@H]1[C@@H]3CC[C@H](CN21)N3 (single isomer, unassigned) [Example 76] |  | 0.3 to 3
6 | CO[C@@H]1C[C@@H](C(C)Oc2nc3c4c(nc(-c5cc(N)cc(C)c5C(F)(F)F)c(F)c4n2)OCC[C@@H]2[C@@H]4CC[C@H](CN32)N4)N(C)C1 (single isomer, unassigned) [Example 145] |  | 0.3 to 3
7 | Cc1cc(N)cc(-c2nc3c4c(nc(O[C@H]5CCOC[C@H]5N(C)C)nc4c2F)N2C[C@H]4CC[C@H](N4)[C@H]2CCO3)c1C(F)(F)F [Example 11, (3R,4S)-4-(((6aR,7S,10R)-2-(5-amino-3-methyl-2-(trifluoromethyl)phenyl)-1-fluoro-5,6,6a,7,8,9,10,11-octahydro-4-oxa-3,11a,12,14,15-pentaaza-7,10-methanocyclohepta[4,5]cycloocta [1,2,3-de]naphthalen-13-yl)oxy)-N,N-dimethyltetrahydro-2H-pyran-3-amine] |  | 3 to 1000
8 | Cc1cc(N)cc(-c2nc3c4c(nc(O[C@H]5COC[C@H]5N(C)C)nc4c2F)N2C[C@H]4CC[C@H](N4)[C@H]2CCO3)c1C(F)(F)F [Example 39, (3R,4R)-4-(((6aR,7S,10R)-2-(5-amino-3-methyl-2-(trifluoromethyl)phenyl)-1-fluoro-5,6,6a,7,8,9,10,11-octahydro-4-oxa-3,11a,12,14,15-pentaaza-7,10-methanocyclohepta[4,5]cycloocta [1,2,3-de]naphthalen-13-yl)oxy)-N,N-dimethyltetrahydrofuran-3-amine] |  | 3 to 1000
9 | Cc1cc(N)cc(-c2nc3c4c(nc(OCC5(CN6CCCC6CO)CC5)nc4c2F)N2C[C@H]4CC[C@H](N4)[C@H]2CCO3)c1C(F)(F)F (single isomer, unassigned) [Example 125] |  | < 0.3
10 | COC1CN(C)CC(C)(COc2nc3c4c(nc(-c5cc(N)cc(C)c5C(F)(F)F)c(F)c4n2)OCC[C@@H]2[C@@H]4CC[C@H](CN32)N4)C1 (stereo partly drawn) [Example 127, 3-((6aR,7S,10R)-1-fluoro-13-((5-methoxy-1,3-dimethylpiperidin-3-yl)methoxy)-5,6,6a,7,8,9,10,11-octahydro-4-oxa-3,11a,12,14,15-pentaaza-7,10-methanocyclohepta[4,5]cycloocta[1,2,3-de]naphthalen-2-yl)-5-methyl-4-(trifluoromethyl)aniline] |  | < 0.3
11 | Cc1cc(N)cc(-c2nc3c4c(nc(OCC5(C)COCC5N(C)C)nc4c2F)N2C[C@H]4CC[C@H](N4)[C@H]2CCO3)c1C(F)(F)F (mixture of isomers) [Example 15, 4-((((6aR,7S,10R)-2-(5-amino-3-methyl-2-(trifluoromethyl)phenyl)-1-fluoro-5,6,6a,7,8,9,10,11-octahydro-4-oxa-3,11a,12,14,15-pentaaza-7,10-methanocyclohepta[4,5]cycloocta [1,2,3-de]naphthalen-13-yl)oxy)methyl)-N,N,4-trimethyltetrahydrofuran-3-amine] |  | 0.3 to 3
12 | Cc1cc(N)cc(-c2nc3c4c(nc(O[C@@H]5CCOC[C@H]5N(C)C)nc4c2F)N2C[C@H]4CC[C@H](N4)[C@H]2CCO3)c1C(F)(F)F [Example 7] |  | 3 to 1000
13 | Cc1cc(N)cc(-c2nc3c4c(nc(OC[C@H]5COC[C@@H]5N(C)C)nc4c2F)N2C[C@H]4CC[C@H](N4)[C@H]2CCO3)c1C(F)(F)F [Example 14, (3R,4R)-4-((((6aR,7S,10R)-2-(5-amino-3-methyl-2-(trifluoromethyl)phenyl)-1-fluoro-5,6,6a,7,8,9,10,11-octahydro-4-oxa-3,11a,12,14,15-pentaaza-7,10-methanocyclohepta[4,5]cycloocta [1,2,3-de]naphthalen-13-yl)oxy)methyl)-N,N-dimethyltetrahydrofuran-3-amine] |  | 3 to 1000
14 | COC1CN(C)CC(C)(COc2nc3c4c(nc(-c5cc(N)cc(C)c5C(F)(F)F)c(F)c4n2)OCC[C@@H]2[C@@H]4CC[C@H](CN32)N4)C1 (stereo partly drawn) [Example 129, 3-((6aR,7S,10R)-1-fluoro-13-((5-methoxy-1,3-dimethylpiperidin-3-yl)methoxy)-5,6,6a,7,8,9,10,11-octahydro-4-oxa-3,11a,12,14,15-pentaaza-7,10-methanocyclohepta[4,5]cycloocta[1,2,3-de]naphthalen-2-yl)-5-methyl-4-(trifluoromethyl)aniline] |  | 3 to 1000
15 | Cc1cc(N)cc(-c2nc3c4c(nc(OCC5(CN6CCn7ncnc7C6)CC5)nc4c2F)N2C[C@H]4CC[C@H](N4)[C@H]2CCO3)c1C(F)(F)F [Example 109, 3-((6aR,7S,10R)-13-((1-((5,6-dihydro-[1,2,4]triazolo[1,5-a]pyrazin-7(8H)-yl)methyl)cyclopropyl)methoxy)-1-fluoro-5,6,6a,7,8,9,10,11-octahydro-4-oxa-3,11a, 12,14,15-pentaaza-7,10-methanocyclohepta [4,5]cycloocta [1,2,3-de]naphthalen-2-yl)-5-methyl-4-(trifluoromethyl)aniline] |  | 3 to 1000
16 | CCN1CC(F)CC(C)(COc2nc3c4c(nc(-c5cc(N)cc(C)c5C(F)(F)F)c(F)c4n2)OCC[C@@H]2[C@@H]4CC[C@H](CN32)N4)C1 (stereo partly drawn) [Example 203, 3-((6aR,7S,10R)-13-((1-ethyl-5-fluoro-3-methylpiperidin-3-yl)methoxy)-1-fluoro-5,6,6a,7,8,9,10,11-octahydro-4-oxa-3,11a,12,14,15-pentaaza-7,10-methanocyclohepta[4,5]cycloocta[1,2,3-de]naphthalen-2-yl)-5-methyl-4-(trifluoromethyl)aniline] |  | 0.3 to 3
